Common to all, as to format: in vivo, mouse
The subject of assay [1] is colorectal cancer MC38 humanized CD274 cell. Nature of the assay: Example 8: MC38 humanized CD274 xenograft model, RB0005 and Gardiquimod. The following applies: i.t. every other day x3; RB0005 1 mg/kg, Gardiquimod 5 mg/kg, combination as single preparation. The procedure: (§1) Tumor cells were cultured and passaged, cells were collected at the logarithmic phase, and formulated into a concentration of (1.0×10^7) per milliliter of cell suspension with 0.1 ml (with a cell number of 1.0×10^6) being injected into the right flank of the mice, the tumor grew to a diameter of about 5 mm within about 10 days, and the model was successfully established, they were randomly divided into 8 groups.
(§2) Tumor weight inhibitory rate=[1−average tumor weight of experimental group (G2/G3/G4)/average tumor weight of negative control group G1)]×100%.
Anti-Tumor Effect of Pharmaceutical Combination Consisting of PD-L1 Inhibitor RB0005 and Other Types of TLR7/8 Agonists (Gardiquimod)
(§3) After a colorectal cancer MC38 humanized CD274 cell subcutaneously-Xenograft tumor model in mice was successfully established, random grouping was performed, and each group had 6-8 mice, which were administered once every two days with a total of 3 times.
(In xenograft studies the graft and the host belong to different species.)

Assay [2] shares this test system. Nature of the assay: Example 10.2: MC38 humanized CD274 xenograft model, Durvalumab or RB0005 and Imiquimod. The conditions noted are these: i.t. every other day x3; Durvalumab or RB0005 1 mg/kg, Imiquimod (LPG2005) 5 mg/kg, combinations as single preparation. The procedure: as §1, §2, §3
For assay [3] the test system is unchanged. The assay can be described thus: Example 12: MC38 humanized CD274 xenograft model, sequential administration of Imiquimod and RB0005. The following applies: i.t.; RB0005 1 mg/kg, Imiquimod 5 mg/kg; G4 sequential: agonist first, PD-L1 inhibitor after 48 h, total of 3 times. The procedure:
as §1, §2

In assay [4] the test system is colorectal cancer MC38 humanized PD1. The assay can be described thus: Example 10.1: MC38 humanized PD1 xenograft model, marketed PD-1 inhibitors and Imiquimod. The conditions noted are these: i.t. every other day x3; PD-1 antibody 10 mg/kg, Imiquimod (LPG2005) 5 mg/kg, combinations as single preparation. The procedure:
as §1, §2
10.1 Anti-Tumor Effect of Composite Preparation (Single Dosage Form) Consisting of a Marketed PD-1 or PD-L1 Inhibitor and a TLR7/8 Agonist Imiquimod
After a colorectal cancer MC38 humanized PD1 subcutaneous xenograft tumor model was successfully established, random grouping was performed, and each group had 6-8 mice, which were administered once every two days with a total of 3 times.

Assay [5] deals with colorectal cancer MC38 humanized CD274 cell. Nature of the assay: Example 7: MC38 humanized CD274 xenograft model, intraperitoneal vs intratumoral administration. The following applies: every other day x3. The procedure: as §1, §2, §3
Assay [6] has the same test system. The assay can be described thus: Example 6: MC38 humanized CD274 xenograft model, LPG2006 single dosage form with different Imiquimod doses. The conditions noted are these: i.t. every other day x3. The procedure: as §1, §2, §3
Assay [7] has as its system colorectal carcinoma MC38 (humanized PD-1 model). The assay can be described thus: Example 2: humanized PD-1 MC38 subcutaneous xenograft tumor model in mice, RB0004 and Imiquimod. The following applies: Imiquimod 5 mg/kg i.t., RB0004 10 mg/kg i.p. The procedure: as §1, §2
The anti-tumor effect of a pharmaceutical combination composed of PD-1 inhibitor RB0004 and a TLR7/TLR8 agonist Imiquimod was tested using a xenograft tumor model, i.e., the inhibitory effect on the growth of subcutaneous xenograft tumor in mice.
After successfully establishing a humanized PD-1 subcutaneous xenograft tumor model of colorectal carcinoma MC38 in mice, they were randomly grouped with 8 mice per group and administered once every two days.

Assay [8] has as its system colorectal cancer CT26 humanized CD274 cell. The assay can be described thus: Example 11: CT26 humanized CD274 xenograft model, LPG2006. The following applies: CT26.sgcd274 CD274, i.t. every other day x3, Imiquimod 5 mg/kg. The procedure:
as §1, §2
Combination LPG2006 (Single Dosage Form) Consisting of PD-L1 Inhibitor RB0005 and Imiquimod, CT26 Tumor Model
After a colorectal cancer CT26 humanized CD274 cell subcutaneous xenograft tumor model in mice was successfully established, random grouping was performed, and each group had 6-8 mice, which were administered once every two days with a total of 3 times.

The subject of assay [9] is colorectal cancer MC38. The assay can be described thus: Example 3: MC38 xenograft tumor model in mice, RB0005 and different doses of Imiquimod. The following applies: i.t. every other day x3; RB0005 1 mg/kg (G2), Imiquimod 5 mg/kg (G5), both in single dosage form (G8). The procedure:
as §1, §2
A colorectal cancer MC38 Xenograft tumor model in mice was used to test an anti-tumor effect of a pharmaceutical combination consisting of a PD-L1 inhibitor RB0005 and different doses of TLR7/TLR8 agonists Imiquimod, that is, the inhibitory effect on the growth of subcutaneous xenograft tumor in mice.
After a subcutaneous xenograft tumor model in mice was successfully established, random grouping was performed, and each group had 8 mice, which were administered once every two days.

Assay [10] relates to colorectal carcinoma MC38. Nature of the assay: Example 1: MC38 subcutaneous xenograft tumor model in mice, RB0005 and Imiquimod. The following applies: as of the end; i.t. every other day; RB0005 1 mg/kg, Imiquimod 5 mg/kg, combination in single dosage form; tumor volume >2000 mm^3 counted as death. The procedure: C57/BL6JNifdc mouse, female, body weight of 17-22 g, aged 6-8 weeks, SPF grade, purchased from Beijing Vital River Laboratory Animal Technology Co., Ltd. [Experimental Animal Quality Certificate No.: SCXK (Beijing) 2016-0006].
as §1, §2
The anti-tumor effect of a pharmaceutical combination composed of PD-L1 inhibitor RB0005 and a TLR7/TLR8 agonist Imiquimod (LPG2005) was tested using a xenograft tumor model, i.e., the inhibitory effect on the growth of subcutaneous xenograft tumor in mice.
After successfully establishing a subcutaneous xenograft tumor model of colorectal carcinoma MC38 in mice, it was randomly grouped with 6-8 mice per group. The mice were administered once every two days, with a total of three times followed by observation until 15 days.

The subject of assay [11] is colorectal cancer MC38 humanized CD274 cell. Nature of the assay: Example 9: MC38 humanized CD274 xenograft model, RB0005 and Resiquimod. The conditions noted are these: i.t. every other day x3; RB0005 1 mg/kg, Resiquimod 5 mg/kg, combination as single preparation. The procedure:
as §1, §2
Anti-Tumor Effect of Pharmaceutical Combination Consisting of PD-L1 Inhibitor RB0005 and Other Types of TLR7/8 Agonists (Resiquimod)
as §3

Where [12] appears, read: intratumoral injection, RB0005 1 mg/kg (G4), Imiquimod 5 mg/kg (G6), LPG2006 single preparation (G8).
Setting [13] is: Imiquimod 6.32 mg/kg (G4), with RB0005 1 mg/kg in single dosage form (G7).
[14] abbreviates: Imiquimod 20 mg/kg (G5), with RB0005 1 mg/kg in single dosage form (G8).
Where [15] appears, read: RB0005 1 mg/kg (G2), Imiquimod 2 mg/kg (G3), both in single dosage form (G6).

Several values for one entry are separate records, joined by “and”; a condition that tells them apart may be missing. Equal entries are not always repeated.

As to `CCNCc1nc2c(N)nc3ccccc3c2n1CC(C)(C)O` [Gardiquimod], in assay [1], the “IRTW (tumor weight inhibition rate)” value is 42% and 41.6%; the “Tumor Weight” value is recorded as 1.81 g.

Turning to `CC(C)Cn1cnc2c(N)nc3ccccc3c21` [Imiquimod], the “IRTW (tumor weight inhibition rate)” value in [2] is recorded as 48.8%; in assay [3], 34.8%; in assay [5] (setting [12]), 23.5%; in assay [6] (setting [13]) it was 58.5%; in [6] (setting [14]) it was 47.4%; in [6] (setting [15]), 27.5%. In addition, the “IRTW (tumor weight inhibition rate)” value in [7] (every other day x3) came to 42.71%; in assay [8] (LPG2006 (RB0005 1 mg/kg + LPG2005 5 mg/kg)) it was 42%; in assay [9], 23.35%. The “Tumor Weight” value came to 0.73 g in [2]; 1.30 g in assay [3]; 1.93 g in assay [4]; 3.74 g in [5] (intraperitoneal injection, RB0005 1 mg/kg (G3), Imiquimod 5 mg/kg (G5), LPG2006 single preparation (G7)); 2.6 g in assay [5] (setting [12]); 2.0 g in assay [6] (setting [13]). Besides, the “Tumor Weight” value stood at 1.8 g in assay [6] (setting [14]); 2.5 g in [6] (setting [15]); 3.62 g in [7] (every other day x3); 1.05 g in assay [8] (RB0005 1 mg/kg, LPG2006 single preparation); 2.70 g in assay [9]. Further, the “survival rate in mice” value in assay [7] (as of the end, every other day x3, combination in separate dosage forms) is given as 40%; in [10], 50%. For the same molecule, the “growth of the tumor volume” value in assay [7] (vs solvent control) is recorded as “slower than that in the solvent control group”.

Consider `CCOCc1nc2c(N)nc3ccccc3c2n1CC(C)(C)O` [Resiquimod], for which, in assay [11], the “IRTW (tumor weight inhibition rate)” value was 40% and 40.2%; the “Tumor Weight” value came to 1.81 g.

For “Durvalumab: marketed anti PD-L1 monoclonal antibody”, in [2], the “IRTW (tumor weight inhibition rate)” value was 21% and 20.9%; the “Tumor Weight” value was 1.13 g.

Turning to “Sintilimab: marketed PD-1 inhibitor monoclonal antibody”, in assay [4], the “IRTW (tumor weight inhibition rate)” value was 3.9% and the “Tumor Weight” value is reported as 1.47 g.

Turning to “Toripalimab: marketed PD-1 inhibitor monoclonal antibody”, in assay [4], the “IRTW (tumor weight inhibition rate)” value is listed as 49.7% and the “Tumor Weight” value is 0.92 g.

B1: Tislelizumab: marketed PD-1 inhibitor monoclonal antibody (antibody, chains of the INN, looked up)
heavy: QVQLQESGPGLVKPSETLSLTCTVSGFSLTSYGVHWIRQPPGKGLEWIGVIYADGSTNYNPSLKSRVTISKDTSKNQVSLKLSSVTAADTAVYYCARAYGNYWYIDVWGQGTTVTVSSASTKGPSVFPLAPCSRSTSESTAALGCLVKDYFPEPVTVSWNSGALTSGVHTFPAVLQSSGLYSLSSVVTVPSSSLGTKTYTCNVDHKPSNTKVDKRVESKYGPPCPPCPAPPVAGGPSVFLFPPKPKDTLMISRTPEVTCVVVAVSQEDPEVQFNWYVDGVEVHNAKTKPREEQFNSTYRVVSVLTVVHQDWLNGKEYKCKVSNKGLPSSIEKTISKAKGQPREPQVYTLPPSQEEMTKNQVSLTCLVKGFYPSDIAVEWESNGQPENNYKTTPPVLDSDGSFFLYSKLTVDKSRWQEGNVFSCSVMHEALHNHYTQKSLSLSLG
light: DIVMTQSPDSLAVSLGERATINCKSSESVSNDVAWYQQKPGQPPKLLINYAFHRFTGVPDRFSGSGYGTDFTLTISSLQAEDVAVYYCHQAYSSPYTFGQGTKLEIKRTVAAPSVFIFPPSDEQLKSGTASVVCLLNNFYPREAKVQWKVDNALQSGNSQESVTEQDSKDSTYSLSSTLTLSKADYEKHKVYACEVTHQGLSSPVTKSFNRGEC
B1: in [4], the “IRTW (tumor weight inhibition rate)” value is listed as 61.4% and the “Tumor Weight” value is on record as 0.59 g.

B2: Camrelizumab: marketed PD-1 inhibitor monoclonal antibody (antibody, chains of the INN, looked up, V domains shown)
VH: EVQLVESGGGLVQPGGSLRLSCAASGFTFSSYMMSWVRQAPGKGLEWVATISGGGANTYYPDSVKGRFTISRDNAKNSLYLQMNSLRAEDTAVYYCARQLYYFDYWGQGTTVTVSS
VL: DIQMTQSPSSLSASVGDRVTITCLASQTIGTWLTWYQQKPGKAPKLLIYTATSLADGVPSRFSGSGSGTDFTLTISSLQPEDFATYYCQQVYSIPWTFGGGTKVEIK
For the molecule B2, in [4], the “IRTW (tumor weight inhibition rate)” value came to 19.6% and the “Tumor Weight” value stood at 1.23 g.

The values above are taken from patent US20250270316A1, “PHARMACEUTICAL COMBINATION AND USE THEREOF” (TIANJIN LIPOGEN TECHNOLOGY CO., LTD, priority 2021, published 2025).
